{"source": "paper PMC10066365", "about": "“Nemacol is a small molecule inhibitor of C. elegans vesicular acetylcholine transporter with anthelmintic potential” (Nature Communications, 2023)", "key": {"C. elegans": {"test_system": "C. elegans", "assay": "Suppression of trichlorfon (AChE inhibitor) paralysis, double dose-response, scored after 80 min", "format": "in vivo, Caenorhabditis elegans", "conditions": "wild-type, bio rep 1-3"}, "rat VAChT": {"target": "T1, rat VAChT (Rattus norvegicus, UniProt Q62666)", "T1 construct": "expressed in transfected cells; host or cells: rat PC12 (PC12 A123.7) cells, stably transfected; shared by Dr. Ali Roghani (Texas Tech University)", "T1 sequence (Q62666 1-530)": "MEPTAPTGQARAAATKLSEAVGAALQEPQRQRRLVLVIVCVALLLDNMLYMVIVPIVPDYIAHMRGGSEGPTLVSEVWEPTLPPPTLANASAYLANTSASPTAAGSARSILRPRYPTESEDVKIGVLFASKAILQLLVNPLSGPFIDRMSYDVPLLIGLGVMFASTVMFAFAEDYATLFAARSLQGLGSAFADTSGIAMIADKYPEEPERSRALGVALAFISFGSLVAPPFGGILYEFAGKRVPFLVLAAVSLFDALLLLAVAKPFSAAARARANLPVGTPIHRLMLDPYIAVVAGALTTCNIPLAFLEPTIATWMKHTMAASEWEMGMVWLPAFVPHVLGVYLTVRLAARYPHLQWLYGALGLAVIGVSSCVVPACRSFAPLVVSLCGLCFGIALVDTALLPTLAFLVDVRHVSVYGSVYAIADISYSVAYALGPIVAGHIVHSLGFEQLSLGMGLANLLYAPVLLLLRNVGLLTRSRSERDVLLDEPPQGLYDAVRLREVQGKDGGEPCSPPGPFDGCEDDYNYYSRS", "assay": "[3H]Vesamicol competitive radioligand binding, PC12 cells expressing ratVAChT", "conditions": "ratVAChT Ki, [3H]Vesamicol displacement, mean"}, "[1]": {"test_system": "C. elegans unc-17 mutants", "conditions": "60 min, average of 3 biological repeats"}, "[2]": {"conditions": "unc-17 (e245), 15 µM, adult worms"}, "[3]": {"conditions": "unc-17 (e245), 30 µM, adult worms"}, "[4]": {"conditions": "unc-17 (e245), 60 µM, adult worms"}, "[5]": {"conditions": "unc-17 (e245), 120 µM, adult worms"}, "[6]": {"conditions": "unc-17 (e245), 240 µM, adult worms"}}, "note": "Where “and” joins values, the source holds several entries; their conditions need not be identical. Equal values may be shown once. Read-outs that look alike come from different tables or passages of the source.", "data": [{"smiles": "O[C@@H]1CCCC[C@H]1N1CCC(c2ccccc2)CC1", "note": "(racemic) [vesamicol, reference compound]", "values": [{"measurement": "% para (percentage of animals able to adopt a clear sinusoidal wave pattern upon touch on the nose)", "setting": "C. elegans; vesamicol 31.75 uM + trichlorfon 0 uM", "result": "96.4286% and 100%"}, {"measurement": "% para (percentage of animals able to adopt a clear sinusoidal wave pattern upon touch on the nose)", "setting": "C. elegans; vesamicol 31.75 uM + trichlorfon 25 uM", "result": "92.8571% and 96.4286% and 100%"}, {"measurement": "% para (percentage of animals able to adopt a clear sinusoidal wave pattern upon touch on the nose)", "setting": "C. elegans; vesamicol 31.75 uM + trichlorfon 50 uM", "result": "82.1429% and 71.4286% and 96.4286%"}, {"measurement": "% para (percentage of animals able to adopt a clear sinusoidal wave pattern upon touch on the nose)", "setting": "C. elegans; vesamicol 31.75 uM + trichlorfon 100 uM", "result": "64.2857% and 53.5714% and 42.8571%"}, {"measurement": "% para (percentage of animals able to adopt a clear sinusoidal wave pattern upon touch on the nose)", "setting": "C. elegans; vesamicol 31.75 uM + trichlorfon 400 uM", "result": 0, "unit": "%"}, {"measurement": "% para (percentage of animals able to adopt a clear sinusoidal wave pattern upon touch on the nose)", "setting": "C. elegans; vesamicol 31.75 uM + trichlorfon 800 uM", "result": 0, "unit": "%"}, {"measurement": "% para (percentage of animals able to adopt a clear sinusoidal wave pattern upon touch on the nose)", "setting": "C. elegans; vesamicol 62.5 uM + trichlorfon 0 uM", "result": 100, "unit": "%"}, {"measurement": "% para (percentage of animals able to adopt a clear sinusoidal wave pattern upon touch on the nose)", "setting": "C. elegans; vesamicol 62.5 uM + trichlorfon 25 uM", "result": "92.8571% and 100%"}, {"measurement": "% para (percentage of animals able to adopt a clear sinusoidal wave pattern upon touch on the nose)", "setting": "C. elegans; vesamicol 62.5 uM + trichlorfon 50 uM", "result": "89.2857% and 85.7143% and 96.4286%"}, {"measurement": "% para (percentage of animals able to adopt a clear sinusoidal wave pattern upon touch on the nose)", "setting": "C. elegans; vesamicol 62.5 uM + trichlorfon 100 uM", "result": "67.8571% and 64.2857% and 53.5714%"}, {"measurement": "% para (percentage of animals able to adopt a clear sinusoidal wave pattern upon touch on the nose)", "setting": "C. elegans; vesamicol 62.5 uM + trichlorfon 400 uM", "result": "0% and 3.571%"}, {"measurement": "% para (percentage of animals able to adopt a clear sinusoidal wave pattern upon touch on the nose)", "setting": "C. elegans; vesamicol 62.5 uM + trichlorfon 800 uM", "result": 0, "unit": "%"}, {"measurement": "% para (percentage of animals able to adopt a clear sinusoidal wave pattern upon touch on the nose)", "setting": "C. elegans; vesamicol 125 uM + trichlorfon 0 uM", "result": 100, "unit": "%"}, {"measurement": "% para (percentage of animals able to adopt a clear sinusoidal wave pattern upon touch on the nose)", "setting": "C. elegans; vesamicol 125 uM + trichlorfon 25 uM", "result": "96.4286% and 100%"}, {"measurement": "% para (percentage of animals able to adopt a clear sinusoidal wave pattern upon touch on the nose)", "setting": "C. elegans; vesamicol 125 uM + trichlorfon 50 uM", "result": "96.4286% and 78.5714% and 92.8571%"}, {"measurement": "% para (percentage of animals able to adopt a clear sinusoidal wave pattern upon touch on the nose)", "setting": "C. elegans; vesamicol 125 uM + trichlorfon 100 uM", "result": "85.7143% and 67.8571% and 60.7143%"}, {"measurement": "% para (percentage of animals able to adopt a clear sinusoidal wave pattern upon touch on the nose)", "setting": "C. elegans; vesamicol 125 uM + trichlorfon 800 uM", "result": 0, "unit": "%"}, {"measurement": "% para (percentage of animals able to adopt a clear sinusoidal wave pattern upon touch on the nose)", "setting": "C. elegans; vesamicol 250 uM + trichlorfon 0 uM", "result": "96.4286% and 100%"}, {"measurement": "% para (percentage of animals able to adopt a clear sinusoidal wave pattern upon touch on the nose)", "setting": "C. elegans; vesamicol 250 uM + trichlorfon 25 uM", "result": "100% and 96.4286%"}, {"measurement": "% para (percentage of animals able to adopt a clear sinusoidal wave pattern upon touch on the nose)", "setting": "C. elegans; vesamicol 250 uM + trichlorfon 50 uM", "result": "96.4286% and 89.2857% and 100%"}, {"measurement": "% para (percentage of animals able to adopt a clear sinusoidal wave pattern upon touch on the nose)", "setting": "C. elegans; vesamicol 250 uM + trichlorfon 100 uM", "result": "75% and 78.5714%"}, {"measurement": "% para (percentage of animals able to adopt a clear sinusoidal wave pattern upon touch on the nose)", "setting": "C. elegans; vesamicol 250 uM + trichlorfon 800 uM", "result": 0, "unit": "%"}, {"measurement": "% para (percentage of animals able to adopt a clear sinusoidal wave pattern upon touch on the nose)", "setting": "C. elegans; vesamicol 500 uM + trichlorfon 0 uM", "result": 100, "unit": "%"}, {"measurement": "% para (percentage of animals able to adopt a clear sinusoidal wave pattern upon touch on the nose)", "setting": "C. elegans; vesamicol 500 uM + trichlorfon 25 uM", "result": "100% and 92.8571% and 96.4286%"}, {"measurement": "% para (percentage of animals able to adopt a clear sinusoidal wave pattern upon touch on the nose)", "setting": "C. elegans; vesamicol 500 uM + trichlorfon 50 uM", "result": "89.2857% and 96.4286% and 78.5714%"}, {"measurement": "% para (percentage of animals able to adopt a clear sinusoidal wave pattern upon touch on the nose)", "setting": "C. elegans; vesamicol 500 uM + trichlorfon 100 uM", "result": "82.1429% and 85.7143%"}, {"measurement": "% para (percentage of animals able to adopt a clear sinusoidal wave pattern upon touch on the nose)", "setting": "C. elegans; vesamicol 500 uM + trichlorfon 200 uM", "result": "42.8571% and 50% and 71.4286%"}, {"measurement": "% para (percentage of animals able to adopt a clear sinusoidal wave pattern upon touch on the nose)", "setting": "C. elegans; vesamicol 500 uM + trichlorfon 800 uM", "result": 0, "unit": "%"}, {"measurement": "Ki", "setting": "rat VAChT", "result": 0.021, "unit": "µM"}, {"measurement": "Fraction Coiled", "setting": "[1]; [2]", "result": 0.65}, {"measurement": "Fraction Jerky-Unc", "setting": "[1]; [2]", "result": 0.35}, {"measurement": "Fraction No Phenotype", "setting": "[1]; [2]", "result": 0.00}, {"measurement": "Fraction Parayzed", "setting": "[1]; [2]", "result": 0.00}, {"measurement": "Fraction Coiled", "setting": "[1]; [3]", "result": 0.74}, {"measurement": "Fraction Jerky-Unc", "setting": "[1]; [3]", "result": 0.24}, {"measurement": "Fraction No Phenotype", "setting": "[1]; [3]", "result": 0.00}, {"measurement": "Fraction Parayzed", "setting": "[1]; [3]", "result": 0.0185}, {"measurement": "Fraction Coiled", "setting": "[1]; [4]", "result": 0.70}, {"measurement": "Fraction Jerky-Unc", "setting": "[1]; [4]", "result": 0.24}, {"measurement": "Fraction No Phenotype", "setting": "[1]; [4]", "result": 0.00}, {"measurement": "Fraction Parayzed", "setting": "[1]; [4]", "result": 0.0556}, {"measurement": "Fraction Coiled", "setting": "[1]; [5]", "result": 0.74}, {"measurement": "Fraction Jerky-Unc", "setting": "[1]; [5]", "result": 0.14}, {"measurement": "Fraction No Phenotype", "setting": "[1]; [5]", "result": 0.00}, {"measurement": "Fraction Parayzed", "setting": "[1]; [5]", "result": 0.12}, {"measurement": "Fraction Coiled", "setting": "[1]; [6]", "result": 0.72}, {"measurement": "Fraction Jerky-Unc", "setting": "[1]; [6]", "result": 0.15}, {"measurement": "Fraction No Phenotype", "setting": "[1]; [6]", "result": 0.00}, {"measurement": "Fraction Parayzed", "setting": "[1]; [6]", "result": 0.13}, {"measurement": "Fraction Coiled", "setting": "[1]; unc-17 (md414), 15 µM", "result": 0.00}, {"measurement": "Fraction Jerky-Unc", "setting": "[1]; unc-17 (md414), 15 µM", "result": 0.037}, {"measurement": "Fraction No Phenotype", "setting": "[1]; unc-17 (md414), 15 µM", "result": 0.96}, {"measurement": "Fraction Parayzed", "setting": "[1]; unc-17 (md414), 15 µM", "result": 0.00}, {"measurement": "Fraction Coiled", "setting": "[1]; unc-17 (md414), 30 µM", "result": 0.00}, {"measurement": "Fraction Jerky-Unc", "setting": "[1]; unc-17 (md414), 30 µM", "result": 0.0741}, {"measurement": "Fraction No Phenotype", "setting": "[1]; unc-17 (md414), 30 µM", "result": 0.93}, {"measurement": "Fraction Parayzed", "setting": "[1]; unc-17 (md414), 30 µM", "result": 0.00}, {"measurement": "Fraction Coiled", "setting": "[1]; unc-17 (md414), 60 µM", "result": 0.00}, {"measurement": "Fraction Jerky-Unc", "setting": "[1]; unc-17 (md414), 60 µM", "result": 0.24}, {"measurement": "Fraction No Phenotype", "setting": "[1]; unc-17 (md414), 60 µM", "result": 0.76}, {"measurement": "Fraction Parayzed", "setting": "[1]; unc-17 (md414), 60 µM", "result": 0.00}, {"measurement": "Fraction Coiled", "setting": "[1]; unc-17 (md414), 120 µM", "result": 0.00}, {"measurement": "Fraction Jerky-Unc", "setting": "[1]; unc-17 (md414), 120 µM", "result": 0.43}, {"measurement": "Fraction No Phenotype", "setting": "[1]; unc-17 (md414), 120 µM", "result": 0.57}, {"measurement": "Fraction Parayzed", "setting": "[1]; unc-17 (md414), 120 µM", "result": 0.00}, {"measurement": "Fraction Coiled", "setting": "[1]; unc-17 (md414), 240 µM", "result": 0.037}, {"measurement": "Fraction Jerky-Unc", "setting": "[1]; unc-17 (md414), 240 µM", "result": 0.61}, {"measurement": "Fraction No Phenotype", "setting": "[1]; unc-17 (md414), 240 µM", "result": 0.35}, {"measurement": "Fraction Parayzed", "setting": "[1]; unc-17 (md414), 240 µM", "result": 0.00}]}]}
